According to PubChem BioAssay AID330 (DTP/NCI, 2004):
Values joined by “and” are separate entries in the source; they are usually repeats but may differ in a detail not shown here. Equal values may be shown once. Inconclusive results and toxic doses are left out. How the source made its calls: active means survival T/C of 150% or more; inactive means T/C below 125% in these data.

System: P388 leukemia ip, CD2F1 mice, survival T/C
Experiment: NCI In Vivo Anticancer Drug Screen. Data for tumor model P388 Leukemia (intraperitoneal) in CD2F1 (CDF1) mice
Conditions: endpoint: median survival time, higher = longer survival
Method in brief: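 Mice carrying the transplanted tumor received test compound or vehicle. Survival was recorded in each group, and the value is the treated-group measurement divided by that of the vehicle-treated control group.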

[1] = dose: 50.0 mg/kg/injection, schedule: Q01DX005 (ip), vehicle: saline with Tween-80
[2] = dose: 100.0 mg/kg/injection, schedule: Q01DX005 (ip), vehicle: saline with Tween-80
[3] = dose: 200.0 mg/kg/injection, schedule: Q01DX005 (ip), vehicle: saline with Tween-80
[4] = dose: 50.0 mg/kg/injection, schedule: Q01DX009 (ip), vehicle: saline
[5] = dose: 6.25 mg/kg/injection, schedule: Q01DX005 (ip), vehicle: Klucel (hydroxypropylcellulose) (HPC)
[6] = dose: 12.5 mg/kg/injection, schedule: Q01DX005 (ip), vehicle: Klucel (hydroxypropylcellulose) (HPC)
[7] = dose: 25.0 mg/kg/injection, schedule: Q01DX005 (ip), vehicle: Klucel (hydroxypropylcellulose) (HPC)
[8] = dose: 100.0 mg/kg/injection, schedule: Q01DX001 (ip), vehicle: Klucel (hydroxypropylcellulose) (HPC)
[9] = dose: 200.0 mg/kg/injection, schedule: Q01DX001 (ip), vehicle: Klucel (hydroxypropylcellulose) (HPC)
[10] = dose: 50.0 mg/kg/injection, schedule: Q01DX005 (ip), vehicle: Klucel (hydroxypropylcellulose) (HPC)
[11] = dose: 100.0 mg/kg/injection, schedule: Q01DX005 (ip), vehicle: Klucel (hydroxypropylcellulose) (HPC)
[12] = dose: 200.0 mg/kg/injection, schedule: Q01DX005 (ip), vehicle: Klucel (hydroxypropylcellulose) (HPC)

Measured: T/C

COC(=O)C12Oc3ccc(-c4ccc5c(c4O)C(O)=C4C(=O)CC(C)C(O)C4(C(=O)OC)O5)c(O)c3C(O)=C1C(=O)CC(C)C2O (stereo not drawn)
inactive: dose: 0.39 mg/kg/injection, schedule: Q01DX009 (ip), vehicle: saline with Tween-80 100 % of control | dose: 0.78 mg/kg/injection, schedule: Q01DX009 (ip), vehicle: saline with Tween-80 104 % of control | dose: 1.56 mg/kg/injection, schedule: Q01DX009 (ip), vehicle: saline with Tween-80 106 % of control | dose: 2.5 mg/kg/injection, schedule: Q01DX009 (ip), vehicle: saline with Tween-80 96 % of control | dose: 3.13 mg/kg/injection, schedule: Q01DX009 (ip), vehicle: saline with Tween-80 112 % of control | dose: 5.0 mg/kg/injection, schedule: Q01DX009 (ip), vehicle: saline with Tween-80 100 % of control | dose: 6.25 mg/kg/injection, schedule: Q04DX003 (ip), vehicle: saline with Tween-80 104 % of control | dose: 8.33 mg/kg/injection, schedule: Q04DX003 (ip), vehicle: saline with Tween-80 104 % of control | dose: 10.0 mg/kg/injection, schedule: Q01DX009 (ip), vehicle: saline with Tween-80 105 % of control | dose: 12.5 mg/kg/injection, schedule: Q04DX003 (ip), vehicle: saline with Tween-80 109 % of control | dose: 18.7 mg/kg/injection, schedule: Q04DX003 (ip), vehicle: saline with Tween-80 113 % of control | dose: 25.0 mg/kg/injection, schedule: Q04DX003 (ip), vehicle: saline with Tween-80 118 % of control

CC(O)c1nc2ccccc2nc1C(=O)Nc1ccccc1N (stereo not drawn)
inactive: [1] 101 % of control | [2] 88 % of control | [3] 92 % of control

CCN(CC)CCOC(=O)/C=C\c1cccc2c(=O)cc(-c3ccccc3)oc12
inactive: [4] 100 % of control | dose: 100.0 mg/kg/injection, schedule: Q01DX009 (ip), vehicle: saline 101 % of control | dose: 200.0 mg/kg/injection, schedule: Q01DX009 (ip), vehicle: saline 117 % of control

CC(Sc1ccccc1)C(=O)N1CCCC1 (stereo not drawn)
inactive: dose: 50.0 mg/kg/injection, schedule: Q01DX009 (ip), vehicle: saline with Tween-80 106 % of control | dose: 100.0 mg/kg/injection, schedule: Q01DX009 (ip), vehicle: saline with Tween-80 103 % of control | dose: 200.0 mg/kg/injection, schedule: Q01DX009 (ip), vehicle: saline with Tween-80 105 % of control

COc1ccc(C(=O)CCS(=O)(=O)CCC(=O)c2ccc(OC)cc2)cc1
inactive: dose: 100.0 mg/kg/injection, schedule: Q04DX003 (ip), vehicle: saline 93 % of control | dose: 200.0 mg/kg/injection, schedule: Q04DX003 (ip), vehicle: saline 91 % of control | dose: 400.0 mg/kg/injection, schedule: Q04DX003 (ip), vehicle: saline 91 % of control

O=C1c2c(Cl)c(Cl)c(Cl)c(Cl)c2C(=O)C2(Cl)CC=CCC12Cl (stereo not drawn)
inactive: [5] 101 % of control | [6] 95 % of control | [7] 101 % of control

COc1c2ccccc2c(C)c2ccc3ccccc3c12
inactive: [8] 107 % of control | [9] 111 % of control

O=CCC(O)C(O)C(O)CO (stereo not drawn)
inactive: dose: 150.0 mg/kg/injection, schedule: Q01DX009 (ip), vehicle: saline 107 % of control | dose: 300.0 mg/kg/injection, schedule: Q01DX009 (ip), vehicle: saline 100 % of control and 104 % of control and 121 % of control | dose: 600.0 mg/kg/injection, schedule: Q01DX009 (ip), vehicle: saline 107 % of control and 112 % of control and 121 % of control | dose: 1200.0 mg/kg/injection, schedule: Q01DX009 (ip), vehicle: saline 103 % of control | dose: 2400.0 mg/kg/injection, schedule: Q01DX009 (ip), vehicle: saline 110 % of control and 91 % of control

O=C(OC1CCCc2ccccc21)c1ccc(N=Nc2ccccc2)cc1 (stereo not drawn)
inactive: dose: 60.0 mg/kg/injection, schedule: Q01DX005 (ip), vehicle: saline with Tween-80 95 % of control | dose: 120.0 mg/kg/injection, schedule: Q01DX005 (ip), vehicle: saline with Tween-80 88 % of control

CCOC(=O)C(=CNc1cc(OC(C)=O)ccc1C)C(=O)OCC
inactive: [10] 110 % of control | [11] 100 % of control | [12] 96 % of control

O=c1[nH]cnc2[nH]cc([N+](=O)[O-])c12
inactive: dose: 6.25 mg/kg/injection, schedule: Q01DX009 (ip), vehicle: saline 102 % of control | dose: 12.5 mg/kg/injection, schedule: Q01DX009 (ip), vehicle: saline 107 % of control | dose: 25.0 mg/kg/injection, schedule: Q01DX009 (ip), vehicle: saline 102 % of control | [4] 103 % of control

Cc1cnc(C#N)c(C#N)n1
inactive: [5] 103 % of control | [6] 106 % of control | [7] 100 % of control | [10] 116 % of control

COc1cc2c(OC)c(c1)CCCC1=CC(=O)C=C(CCC2)C1=O
inactive: [1] 94 % of control | [8] 92 % of control | [2] 103 % of control | [9] 100 % of control | [3] 100 % of control | dose: 400.0 mg/kg/injection, schedule: Q01DX001 (ip), vehicle: Klucel (hydroxypropylcellulose) (HPC) 90 % of control

CCCOC(=O)NC(C)C(=O)NC(CCC(=O)NC(CCCC(N)C(=O)O)C(=O)NC(C)C(=O)O)C(=O)O (stereo not drawn)
inactive: dose: 1.56 mg/kg/injection, schedule: Q01DX005 (ip), vehicle: Klucel (hydroxypropylcellulose) (HPC) 100 % of control | dose: 3.12 mg/kg/injection, schedule: Q01DX005 (ip), vehicle: Klucel (hydroxypropylcellulose) (HPC) 103 % of control | [5] 100 % of control | [6] 95 % of control and 96 % of control | [7] 86 % of control | [10] 100 % of control

CCOC(=O)C1=C(C)N[C@H](c2ccccc2[N+](=O)[O-])N[C@H]1c1ccccc1[N+](=O)[O-]
inactive: [6] 105 % of control | [7] 94 % of control | [10] 88 % of control and 92 % of control

COc1nc(NC2OC(CO)C(O)C(O)C2O)c(C=O)c(=O)n1C (stereo not drawn)
inactive: dose: 60.0 mg/kg/injection, schedule: Q01DX005 (ip), vehicle: saline 93 % of control | dose: 120.0 mg/kg/injection, schedule: Q01DX005 (ip), vehicle: saline 100 % of control | dose: 240.0 mg/kg/injection, schedule: Q01DX005 (ip), vehicle: saline 99 % of control

COC1OC(CNCCO)C2OC(C)(C)OC12 (stereo not drawn)
inactive: dose: 50.0 mg/kg/injection, schedule: Q01DX005 (ip), vehicle: saline + alcohol 100 % of control | dose: 100.0 mg/kg/injection, schedule: Q01DX005 (ip), vehicle: saline + alcohol 100 % of control | dose: 200.0 mg/kg/injection, schedule: Q01DX005 (ip), vehicle: saline + alcohol 100 % of control

CCCCOc1ccc(NN=O)cn1
inactive: dose: 3.12 mg/kg/injection, schedule: Q01DX009 (ip), vehicle: water 106 % of control | dose: 6.25 mg/kg/injection, schedule: Q01DX009 (ip), vehicle: water 92 % of control | dose: 12.5 mg/kg/injection, schedule: Q01DX009 (ip), vehicle: water 99 % of control | dose: 25.0 mg/kg/injection, schedule: Q01DX009 (ip), vehicle: water 93 % of control | dose: 50.0 mg/kg/injection, schedule: Q01DX009 (ip), vehicle: water 92 % of control and 97 % of control | dose: 100.0 mg/kg/injection, schedule: Q01DX009 (ip), vehicle: water 97 % of control | dose: 200.0 mg/kg/injection, schedule: Q01DX009 (ip), vehicle: water 101 % of control

FC(F)(F)/C([S-])=C(/[S-])C(F)(F)F.FC(F)(F)/C([S-])=C(/[S-])C(F)(F)F.FC(F)(F)/C([S-])=C(/[S-])C(F)(F)F.FC(F)(F)/C([S-])=C(/[S-])C(F)(F)F.[Co+3].[Co+3]
inactive: dose: 33.0 mg/kg/injection, schedule: Q04DX003 (ip), vehicle: other 107 % of control | dose: 50.0 mg/kg/injection, schedule: Q04DX003 (ip), vehicle: other 100 % of control

COC(=O)C1C(OCc2ccccc2)C2CCC1(OC)C=C2C (stereo not drawn)
inactive: dose: 100.0 mg/kg/injection, schedule: Q04DX002 (ip), vehicle: saline with Tween-80 91 % of control | dose: 200.0 mg/kg/injection, schedule: Q04DX002 (ip), vehicle: saline with Tween-80 98 % of control | dose: 400.0 mg/kg/injection, schedule: Q04DX002 (ip), vehicle: saline with Tween-80 91 % of control

OCCN(CCO)c1cc2c3ccccc3ccc2c2ccccc12
inactive: [10] 87 % of control | [11] 103 % of control | [12] 98 % of control
